This is an account of results in patent publication US7338950B2, “Amide compounds as ion channel ligands and uses thereof” (Renovis, Inc., priority 2003, dated 2008).

The test system of the assay is VR1 receptor (293 cells expressing capsaicin-insensitive VR1 receptor variants). The assay is described as follows: High throughput screening of VR1 antagonists using a calcium imaging assay (Fura2, pH 5.1 stimulus).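 Further: Fura2 ratiometric fluorescence read every 4 s over 3 min, response taken as peak ratio minus baseline before pre-treatment, compound pre-treatment preceding acid challenge.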 The note with it: 1 uM compound; inhibition of calcium ion influx.

Text: A dual wavelength ratiometric dye, Fura2, was used as an indicator of relative levels of calcium ions in a 96 well format using a bench top scanning fluorometer with integrated fluidics and temperature control (Flex Station, Molecular Devices).
A dual wavelength ratiometric dye, Fura2, was used as an indicator of relative levels of [Ca2+] in a 96 well format using a bench top scanning fluorometer with integrated fluidics and temperature control (Flex Station, Molecular Devices).
293 cells were grown on PDL coated 96-well black-walled plates, in the presence of a DMEM medium containing 5% Penstrep, 5% Glutamax, 200 ug/mL Hygromycin, 5 μg/mL Blasticide and 10% heat inactivated FBS. Prior to assay, the cells were loaded with 5 μg/mL Fura2 in normal saline solution at 37° C. for 40 minutes. Cells were then washed with normal saline to remove the dye.
The assay consists of two stages; a pre-treatment phase followed by a treatment phase.
50 μl of a compound solution was added to the cells (Pre-treatment). Immediately following, 50 μl of the test compound in a saline solution at pH 5.1 was added. […] Changes in wavelength measurements were made throughout the course of the experiment in 4 second intervals over a period of 3 minutes. Responses were measured as peak fluorescence ratio after test compound addition minus baseline fluorescence ratio prior to pre-treatment and were calculated using SoftMaxPro softwareData were expressed as percentage inhibition calculated using Excel as follows:

For the compound `O=C(Nc1ccc2c(c1)OCCO2)c1ccc(-c2ncccc2Cl)cc1` [Compound 1018], the “% Inhibition @ 1 uM” value was “++ (compound exhibited 25-50% inhibition of calcium ion influx induced by capsaicin stimulation)”.

With `COc1cccc(NC(=O)c2ccc(-c3ncccc3Cl)cc2)c1` [Compound 1019], the “% Inhibition @ 1 uM” value is “+ (compound exhibited 0-25% inhibition of calcium ion influx induced by capsaicin stimulation)”.

For the compound `O=C(Nc1ccccc1)c1ccc(-c2ncccc2Cl)cc1` [Compound 1020], the “% Inhibition @ 1 uM” value was “+ (compound exhibited 0-25% inhibition of calcium ion influx induced by capsaicin stimulation)”. For `O=C(Nc1ccc2[nH]ccc2c1)c1ccc(-c2ncccc2Cl)cc1` [Compound 1021] the value was “++++ (compound exhibited 75% or greater inhibition of calcium ion influx induced by capsaicin stimulation)”; for `COc1ccc(NC(=O)c2ccc(-c3ncccc3Cl)cc2)cc1` [Compound 1022], “++ (compound exhibited 25-50% inhibition of calcium ion influx induced by capsaicin stimulation)”. For `O=C(Nc1ccncc1)c1ccc(-c2ncccc2Cl)cc1` [Compound 1024] the value was “++++ (compound exhibited 75% or greater inhibition of calcium ion influx induced by capsaicin stimulation)”. With `O=C(Nc1cccnc1)c1ccc(-c2ncccc2Cl)cc1` [Compound 1025], the “% Inhibition @ 1 uM” value is given as “++++ (compound exhibited 75% or greater inhibition of calcium ion influx induced by capsaicin stimulation)”. With `O=C(Nc1cc[nH]n1)c1ccc(-c2ncccc2Cl)cc1` [Compound 1026], the “% Inhibition @ 1 uM” value is “+ (compound exhibited 0-25% inhibition of calcium ion influx induced by capsaicin stimulation)”.

As for `N#Cc1ccccc1NC(=O)c1ccc(-c2ncccc2Cl)cc1` [Compound 1028], the “% Inhibition @ 1 uM” value is “+ (compound exhibited 0-25% inhibition of calcium ion influx induced by capsaicin stimulation)”. As for `O=C(Nc1cccc(Cl)c1)c1ccc(-c2ncccc2Cl)cc1` [Compound 1029], the “% Inhibition @ 1 uM” value is “+ (compound exhibited 0-25% inhibition of calcium ion influx induced by capsaicin stimulation)”. For `COc1ccccc1NC(=O)c1ccc(-c2ncccc2Cl)cc1` [Compound 1030], the “% Inhibition @ 1 uM” value was “++++ (compound exhibited 75% or greater inhibition of calcium ion influx induced by capsaicin stimulation)”. For `O=C(Nc1ccccc1Cl)c1ccc(-c2ncccc2Cl)cc1` [Compound 1032] the value was “+ (compound exhibited 0-25% inhibition of calcium ion influx induced by capsaicin stimulation)”; for `O=C(Nc1ccc(Cl)cc1Cl)c1ccc(-c2ncccc2Cl)cc1` [Compound 1033], “+ (compound exhibited 0-25% inhibition of calcium ion influx induced by capsaicin stimulation)”; for `COc1ccc(NC(=O)c2ccc(-c3ncccc3Cl)cc2)cc1Cl` [Compound 1034], “+ (compound exhibited 0-25% inhibition of calcium ion influx induced by capsaicin stimulation)”. On to `O=C(Nc1ccc(C(F)(F)F)cc1)c1ccc(-c2ncccc2Cl)cc1` [Compound 1035], for which the “% Inhibition @ 1 uM” value was “++++ (compound exhibited 75% or greater inhibition of calcium ion influx induced by capsaicin stimulation)”. Turning to `O=C(Nc1ccc(Cl)c(C(F)(F)F)c1)c1ccc(-c2ncccc2Cl)cc1` [Compound 1037], the “% Inhibition @ 1 uM” value is reported as “+++ (compound exhibited 50-75% inhibition of calcium ion influx induced by capsaicin stimulation)”.

`O=C(Nc1cccc(Br)c1)c1ccc(-c2ncccc2Cl)cc1` [Compound 1038]: the “% Inhibition @ 1 uM” value was “+ (compound exhibited 0-25% inhibition of calcium ion influx induced by capsaicin stimulation)”. Take `N#Cc1cccc(NC(=O)c2ccc(-c3ncccc3Cl)cc2)c1` [Compound 1039]: the “% Inhibition @ 1 uM” value is reported as “+ (compound exhibited 0-25% inhibition of calcium ion influx induced by capsaicin stimulation)”.

In the case of `O=C(Nc1ccccc1CCO)c1ccc(-c2ncccc2Cl)cc1` [Compound 1040], the “% Inhibition @ 1 uM” value is recorded as “+++ (compound exhibited 50-75% inhibition of calcium ion influx induced by capsaicin stimulation)”. The same measure for `CC(C)(C)c1ccc(NC(=O)c2ccc(-c3ncccc3Cl)cc2)cc1` [Compound 1041]: “++++ (compound exhibited 75% or greater inhibition of calcium ion influx induced by capsaicin stimulation)”; for `CC(C)c1ccc(NC(=O)c2ccc(-c3ncccc3Cl)cc2)cc1` [Compound 1042]: “++++ (compound exhibited 75% or greater inhibition of calcium ion influx induced by capsaicin stimulation)”; for `CCCCc1ccc(NC(=O)c2ccc(-c3ncccc3Cl)cc2)cc1` [Compound 1043]: “++ (compound exhibited 25-50% inhibition of calcium ion influx induced by capsaicin stimulation)”. As to `O=C(Nc1ccc(C2CCCCC2)cc1)c1ccc(-c2ncccc2Cl)cc1` [Compound 1044], the “% Inhibition @ 1 uM” value was “++++ (compound exhibited 75% or greater inhibition of calcium ion influx induced by capsaicin stimulation)”. The same measure for `COc1cc(NC(=O)c2ccc(-c3ncccc3Cl)cc2)cc(C(F)(F)F)c1` [Compound 1045]: “++ (compound exhibited 25-50% inhibition of calcium ion influx induced by capsaicin stimulation)”. For `O=C(Nc1cccnc1Cl)c1ccc(-c2ncccc2Cl)cc1` [Compound 1047] the value was “++ (compound exhibited 25-50% inhibition of calcium ion influx induced by capsaicin stimulation)”; for `O=C(Nc1ccc(Cl)nc1)c1ccc(-c2ncccc2Cl)cc1` [Compound 1048], “+ (compound exhibited 0-25% inhibition of calcium ion influx induced by capsaicin stimulation)”. The same measure for `COc1ccc(NC(=O)c2ccc(-c3ncccc3Cl)cc2)cn1` [Compound 1049]: “+ (compound exhibited 0-25% inhibition of calcium ion influx induced by capsaicin stimulation)”; for `O=C(Nc1ccnc(Cl)c1)c1ccc(-c2ncccc2Cl)cc1` [Compound 1050]: “++++ (compound exhibited 75% or greater inhibition of calcium ion influx induced by capsaicin stimulation)”.

As for `O=C(Nc1ccc2c(c1)OCO2)c1ccc(-c2ncccc2Cl)cc1` [Compound 1051], the “% Inhibition @ 1 uM” value is given as “+ (compound exhibited 0-25% inhibition of calcium ion influx induced by capsaicin stimulation)”. Turning to `Cc1cc(NC(=O)c2ccc(-c3ncccc3Cl)cc2)nc(C)n1` [Compound 1052], the “% Inhibition @ 1 uM” value is “+ (compound exhibited 0-25% inhibition of calcium ion influx induced by capsaicin stimulation)”.

For the compound `O=C(Nc1ccc2c(c1)Cc1ccccc1-2)c1ccc(-c2ncccc2Cl)cc1` [Compound 1053], the “% Inhibition @ 1 uM” value is reported as “++ (compound exhibited 25-50% inhibition of calcium ion influx induced by capsaicin stimulation)”.

With `Cc1cc(C)nc(NC(=O)c2ccc(-c3ncccc3Cl)cc2)c1` [Compound 1054], the “% Inhibition @ 1 uM” value is “+ (compound exhibited 0-25% inhibition of calcium ion influx induced by capsaicin stimulation)”. The same measure for `O=C(Nc1nccs1)c1ccc(-c2ncccc2Cl)cc1` [Compound 1055]: “+ (compound exhibited 0-25% inhibition of calcium ion influx induced by capsaicin stimulation)”. Consider `CC(C)(CO)NC(=O)c1ccc(-c2ncccc2Cl)cc1` [Compound 1058], for which the “% Inhibition @ 1 uM” value is “+ (compound exhibited 0-25% inhibition of calcium ion influx induced by capsaicin stimulation)”. With `CN(C)c1cccc(NC(=O)c2ccc(-c3ncccc3Cl)cc2)c1` [Compound 1060], the “% Inhibition @ 1 uM” value is “++++ (compound exhibited 75% or greater inhibition of calcium ion influx induced by capsaicin stimulation)”.

With `CCN(CC)c1ccc(NC(=O)c2ccc(-c3ncccc3Cl)cc2)cc1` [Compound 1061], the “% Inhibition @ 1 uM” value was “++++ (compound exhibited 75% or greater inhibition of calcium ion influx induced by capsaicin stimulation)”. For `O=C(Nc1ccc(N2CCOCC2)cc1)c1ccc(-c2ncccc2Cl)cc1` [Compound 1062] the value was “+ (compound exhibited 0-25% inhibition of calcium ion influx induced by capsaicin stimulation)”.

For `Cc1cccnc1NC(=O)c1ccc(-c2ncccc2Cl)cc1` [Compound 1065], the “% Inhibition @ 1 uM” value is on record as “++ (compound exhibited 25-50% inhibition of calcium ion influx induced by capsaicin stimulation)”. In the case of `O=C(Nc1ccc(Br)cn1)c1ccc(-c2ncccc2Cl)cc1` [Compound 1066], the “% Inhibition @ 1 uM” value is listed as “++ (compound exhibited 25-50% inhibition of calcium ion influx induced by capsaicin stimulation)”. Take `O=C(Nc1ccc(C(F)(F)F)cn1)c1ccc(-c2ncccc2Cl)cc1` [Compound 1067]: the “% Inhibition @ 1 uM” value is reported as “++ (compound exhibited 25-50% inhibition of calcium ion influx induced by capsaicin stimulation)”. Take `CCC(C)(C)NC(=O)c1ccc(-c2ncccc2Cl)cc1` [Compound 1070]: the “% Inhibition @ 1 uM” value was “+ (compound exhibited 0-25% inhibition of calcium ion influx induced by capsaicin stimulation)”. For `O=C(Nc1ccc2ncccc2c1)c1ccc(-c2ncccc2Cl)cc1` [Compound 1071] the value was “+ (compound exhibited 0-25% inhibition of calcium ion influx induced by capsaicin stimulation)”. As to `CCC1c2ccccc2-c2cc(NC(=O)c3ccc(-c4ncccc4Cl)cc3)ccc21` (stereo not drawn) [Compound 1072], the “% Inhibition @ 1 uM” value is recorded as “++ (compound exhibited 25-50% inhibition of calcium ion influx induced by capsaicin stimulation)”. As for `O=C(Nc1ccc([N+](=O)[O-])cc1)c1ccc(-c2ncccc2Cl)cc1` [Compound 1073], the “% Inhibition @ 1 uM” value is “++++ (compound exhibited 75% or greater inhibition of calcium ion influx induced by capsaicin stimulation)”. `O=C(Nc1ccc2ccccc2c1)c1ccc(-c2ncccc2Cl)cc1` [Compound 1074]: the “% Inhibition @ 1 uM” value is “++++ (compound exhibited 75% or greater inhibition of calcium ion influx induced by capsaicin stimulation)”. For `O=C(Nc1ccncc1)c1ccc(-c2ncccc2Cl)cc1F` [Compound 1079] the value was “+ (compound exhibited 0-25% inhibition of calcium ion influx induced by capsaicin stimulation)”; for `O=C(Nc1cccnc1)c1ccc(-c2ncccc2Cl)cc1F` [Compound 1080], “+ (compound exhibited 0-25% inhibition of calcium ion influx induced by capsaicin stimulation)”; for `CC(C)(NC(=O)c1ccc(-c2ncccc2Cl)cc1F)c1ccccc1` [Compound 1083], “+ (compound exhibited 0-25% inhibition of calcium ion influx induced by capsaicin stimulation)”.
